Format in all cases: cell-based
Series [1] deals with differentiation-inducing cell aggregates formed from human iPS cells. The series can be described thus: Effect on differentiation-inducing cell aggregates (Cleaved Caspase-3 immunostaining). The following applies: 24 hours, aggregates without treatment 19%. The method, then:
Firstly, differentiation-inducing cell aggregates were prepared according to the following procedures.
According to a similar method to that of Test Example 2, the human iPS cells one day before subconfluence were cultured under feeder free conditions using the StemFit medium (AK03; Ajinomoto) in the presence of SB431542 (TGFβ signaling pathway inhibitory compound (TGFβR-i), 5 μmol/L) for 1 day. A 6-well plate (Iwaki, for cell culture, culture area 9.4 cm^2) was used as the plastic culture dish, and the number of plated cells for the human iPS cells dispersed into single cells was set 1.0×10^4. The cells were treated with cell dispersion using TrypLE Select (Life Technologies), and dispersed into single cells by pipetting operation. The cells were then suspended in 100 μl of a serum-free medium at 1.0×10^4 cells per well of a non-cell adhesive 96-well culture plate (PrimeSurface 96V-bottom plate, manufactured by SUMITOMO BAKELITE), and cultured in suspension at 37° C. and 5% CO2. As the serum-free medium (gfCDM+KSR), a serum-free medium which is 1:1 mixture of F-12 medium and IMDM medium supplemented with 10% KSR, 450 μmol/L 1-monothioglycerol, and 1×Chemically defined lipid concentrate was used. At the time of the start of suspension culture (day 0 after the start of suspension culture), Y27632 (final concentration: 20 μmol/L) was added to the medium, and the cells was further cultured using a medium containing Wnt signaling inhibitory compound (IWR-1e, 3 μmol/L).
After culturing at 37° C. and 5% CO2 for 24 hours, the medium was changed to the serum-free medium containing the present compound in a final concentration of 0.1 μmol/L or 1 μmol/L, or DMSO in a concentration equal thereto, and the cells were cultured for additional 24 hours. After 24 hours, the obtained cell aggregates were fixed with 4% paraformaldehyde to prepare frozen sections. […] The immunostained sections were observed by inverted fluorescence microscope (Keyence, BIREVO). In addition, the Cleaved Caspase-3 positive area was calculated using the NIH Image-J software.

In the next series the test system is human iPS cells. The series can be described thus: Evaluation of cytotoxic activity against iPS cells (DAPI nuclear staining, DAPI positive area). The following applies: 24 hours. Here is the method: Human iPS cells were cultured under feeder-free condition according to the method described in Scientific Reports, 4, 3594 (2014). The StemFit medium (AKO3N, Ajinomoto) was used as feeder-free medium, and Laminin511-E8 (Nippi) was used as feeder-free scaffold.
The subconfluent human iPS cells were washed with PBS and dispersed into single cells using TrypLE Select (Life Technologies). The human iPS cells were then seeded in a plastic culture dish coated with Laminin511-E8, and cultured under feeder-free conditions at 37° C. and 5% CO2 using the StemFit medium in the presence of Y27632 (ROCK inhibitory compound, 10 μmol/L). A 96-well plate (BD, for cell culture, culture area 0.35 cm^2) was used as the plastic culture dish, and the number of plated cells for the human iPS cells dispersed into single cells was set to 0.03×10^4. The medium was changed to Y27632-free StemFit medium 1 day after the seeding. Thereafter, the medium was changed to the Y27632-free StemFit medium once in 1 to 2 days. The cells were then cultured until subconfluent (60% of culture area is covered with the cells). To the human iPS cells was added the Stem Fit medium (AK03; Ajinomoto) to adjust the final concentrations of the compounds of Examples 1-2, 10-2, and 22 dissolved in DMSO to 10, 1, 0.1, and 0.01 μmol/L, and the cells were cultured for 24 hours.
After 24 hours, the medium was removed, the obtained cells were each fixed with 4% paraformaldehyde at 4° C. for 15 minutes, PBS solution containing DAPI (Sigma) was added thereto to perform nuclear staining for the cells, and then the cells were observed by inverted fluorescence microscope (Keyence, BIREVO). In addition, the DAPI positive area was calculated using the quantitative software of the microscope.

For another series, the system named is HCT-116 cells. In words: Test for inhibiting sphere-forming ability of cancer cells. The following applies: Homo sapiens, 96 h, non-adherent serum-free sphere culture, 4 days, CellTiter-Glo, read-out: IC50 (Sphere IC50 value; concentration for 50% inhibition of cell proliferation). Here is the method: The reliable methods established for measuring the self-renewal ability of cells which is one of the CSC's properties include a method for measuring the sphere-forming ability of cancer cells in non-adherent condition in the absence of serum (Cancer Res 65, 5506-5511 (2005)). HCT-116 cells were available from the American Type Culture Collection (ATCC). HCT-116 cells were cultured at 37° C. and 5% CO2 using the McCoy's 5a medium containing 10% fetal bovine serum (FBS), 100 U/ml penicillin, and 100 μg/ml streptomycin. HCT-116 cells were seeded in a 384 Well Black Clear Bottom Ultra-Low Attachment Microplate (Corning Cat. No. 3827) in an amount of 350-800 cells/well using the DMEM/F12 medium containing 2% B27 supplement (GIBCO), 20 ng/mL epidermal growth factor (EGF) (peprotech), 10 ng/mL basic fibroblast growth factor (bFGF) (peprotech), 5 μg/mL insulin (Sigma), and 1% penicillin/streptomycin. The test compounds were added into each well to adjust the final concentration of DMSO to 0.1%, and the cells were cultured for 4 days. The number of viable cells in each well was then measured with CeilTiter-Glo® Luminescent Cell Viability Assay (Promega) to calculate the concentration of each test compound for 50% inhibition of cell proliferation (Sphere IC50 value; μmol/L).
The experiment of Test Example 1 was performed for the compound of each Example. The concentration of each test compound for 50% inhibition of cell proliferation (Sphere IC50 value; μmol/L) is shown in the following Table.
(In general: In ATP-based viability assays light output follows the ATP content of the culture.)

In the case of `CC(=O)Nc1ccc(/C=C/C(=O)Nc2cn(Cc3cccc(C(F)(F)F)c3)cn2)cc1.Cl` [Example 1-2, (2E)-3-[4-(Acetylamino)phenyl]-N-(1-[3-(trifluoromethyl)benzyl]-1H-imidazol-4-yl)prop-2-enamide hydrochloride], the “ratio of Cleaved Caspase-3 positive area in the cell aggregates” value in series [1] (0.1 μmol/L) is reported as 24%; in series [1] (1 μmol/L), 27%. In addition, the results for the “ratio of viable cells to that of cells without treatment” value (“ratio … of cells without treatment” below) with human iPS cells (0.1 μmol/L), in the series with human iPS cells (1 μmol/L) and in the series on human iPS cells (10 μmol/L) were 53%, 25% and 14%, respectively. For the same compound, in the series with human iPS cells (tested at 10, 1, 0.1 and 0.01 μmol/L), the “concentration at which cytotoxic activity against human iPS cells was found” value was not below 0.1 µmol/L.
As for `CC(=O)Nc1ccc(/C=C/C(=O)Nc2cn(Cc3cccc(Cl)c3)cn2)cc1` [Example 2], in the series on HCT-116 cells, the IC50 (usually the concentration needed to halve the response being measured) was 220 nM.
On the same count and under the same terms, in the case of `CC(=O)Nc1ccc(/C=C/C(=O)Nc2cn(Cc3cccc(OC(F)(F)F)c3)cn2)cc1` [Example 3] it was 630 nM; in that of `CC(=O)Nc1ccc(/C=C/C(=O)Nc2cn(Cc3cc(F)c(F)c(F)c3)cn2)cc1` [Example 4], less than 10 nM.
On the same count and under the same terms, for `COc1ccc(/C=C/C(=O)Nc2cn(Cc3cc(F)c(F)c(F)c3)cn2)cc1OCCO` [Example 5, (E)-3-(3-(2-Hydroxyethoxy)-4-methoxyphenyl)-N-(1-(3,4,5-trifluorobenzyl)-1H-imidazol-4-yl)acrylamide] the value was 60 nM; for `COc1ccc(/C=C/C(=O)Nc2cn(Cc3cccc(Cl)c3)cn2)cc1OCCO` [Example 6, (2E)-N-[1-(3-Chlorobenzyl)-1H-imidazol-4-yl]-3-[3-(2-hydroxyethoxy)-4-methoxyphenyl]prop-2-enamide], 60 nM.
Take `COc1ccc(/C=C/C(=O)Nc2cn(Cc3cccc(C(F)(F)F)c3)cn2)cc1OCCO` [Example 7]: in the series on HCT-116 cells, the IC50 was found to be 90 nM.
The same measure, in the same setting: for `N#Cc1ccc(/C=C/C(=O)Nc2cn(Cc3cccc(Cl)c3)cn2)cc1OCCO` [Example 8] the value was 80 nM; for `O=C(/C=C/c1cccnc1)Nc1cn(Cc2cccc(Cl)c2)cn1` [Example 9, (2E)-N-(1-(3-Chlorobenzyl)-1H-imidazol-4-yl)-3-(pyridin-3-yl)prop-2-enamide], 890 nM.
Turning to `COc1ccc(C(=O)Nc2cn(Cc3cccc(Cl)c3)cn2)cc1OC.Cl` [Example 10-2, N-[1-(3-Chlorobenzyl)-1H-imidazol-4-yl]-3,4-dimethoxybenzamide hydrochloride], the IC50 with HCT-116 cells turned out to be 630 nM. Further, in series [1] (1 μmol/L), the “ratio of Cleaved Caspase-3 positive area in the cell aggregates” value turned out to be 26%. The “ratio … of cells without treatment” value in the series on human iPS cells (1 μmol/L) came to 37%; in the series with human iPS cells (10 μmol/L), 17%.
Consider `COc1ccc(C(=O)Nc2cn(Cc3cc(F)c(F)c(F)c3)cn2)cc1OC` [Example 13], for which the IC50 in the series on HCT-116 cells amounted to 60 nM.
The same measure, in the same setting: for `COc1ccc(NC(=O)c2cn(Cc3cc(F)c(F)c(F)c3)cn2)cc1OC` [Example 14] the value was 210 nM; for `O=C(Nc1nc(CO)cs1)c1cn(Cc2cc(F)c(F)c(F)c2)cn1` [Example 16], 629 nM.
In the case of `O=C(COc1ccc(CO)nc1)Nc1cn(Cc2cc(F)c(F)c(F)c2)cn1` [Example 17], in the series with HCT-116 cells, the IC50 is less than 10 nM.
On to `O=C(Nc1cn(Cc2cccc(C(F)(F)F)c2)cn1)c1ccc(CO)nc1` [Example 22, 6-(hydroxymethyl)-N-{1-[3-(trifluoromethyl)benzyl]-1H-imidazol-4-yl}nicotinamide], for which the figures for the “ratio … of cells without treatment” value with human iPS cells (0.1 μmol/L) and in the series on human iPS cells (1 μmol/L) were 51% and 31%, respectively.

The values above are taken from patent publication US11434472B2, “Agent for removing undifferentiated iPS cells” (Sumitomo Pharma Co., Ltd., priority 2016, dated 2022).
